Data on one compound can be found in US20050118728A1, “Two-layer antibody capture system” (priority 2003, published 2005).

Entries after “also recorded” stand apart in the source; their conditions may differ.

This experiment relates to phospholipase C-γl. The experiment in a line: Effect of tyrosine kinase inhibitor on ATP-dependent stimulation of immunocaptured phospholipase C-γl catalytic activity ([3H]PtdIns(4,5)P2 hydrolysis). In kind it is biochemical. Conditions: 50 μM genistein, 20 minutes, 35° C.; enzyme captured from rat hippocampal formation P2 extract; in the presence of CaMKII, PKC and PKA inhibitors. As for the experimental part: Anti-phospholipase C-γl antibodies were coated onto biotinylated anti-globulin immobilized on streptavidin at 200 ng of rabbit polyclonal antibody/100 μL per well. Each well was then incubated with 20 μg of rat hippocampal P2 extract overnight, and, subsequently, washed three times (5 minutes each) with room temperature PBS buffer. […]
Phospholipase C-γl enzyme activity was quantified essentially as described in Weeber et al. (Neurobiology of Learning and Memory 76 (2001) 151-182). […] 300 μL of the supernatant containing the reaction product ([^3H]Ins(1,4,5)P3) was removed and quantified by liquid scintillation spectroscopy. Immune-complex-dependent activity was calculated by subtracting background [^3H]Ins(1,4,5)P3 (release present in normal rabbit IgG antibody control samples) from the activity measured in wells containing anti-phospholipase C-γl antibody. Data were calculated as nanomoles Ins(1,4,5)P3 product formed per minute, or per mg protein, or per minute per mg protein present in the extract from which the enzyme was affinity purified.
We sought to determine whether the technique that we used for the affinity capture of phospholipase C-γl allowed for the detection of tyrosine kinase(s) that associate with the phospholipase C-γl. […] The wells were then rinsed with 1.25× phospholipase C assay buffer and the catalytic activity of the isozyme was determined. […]

As for `O=c1c(-c2ccc(O)cc2)coc2cc(O)cc(O)c12` [genistein], the “ATP-dependent stimulation of phospholipase C-γl catalytic activity” value is “blocks; also recorded: completely inhibited”.
